These results are taken from paper PMC6368574, “Probing the Inhibition of Microtubule Affinity Regulating Kinase 4 by N-Substituted Acridones” (Scientific Reports, 2019).

Data set [1] relates to MCF-7 cells. The experiment in a line: MTT cell viability assay, MCF-7. Format: cell-based. To be noted: Homo sapiens, MCF7; Table S2; MTT; read-out: IC50 (µM) MCF-7. As for the experimental part: (§1) Initially, all synthesized acridone derivatives were evaluated for their cytotoxicity potential on MCF-7, HepG2 and HEK293 cell lines by MTT assay. These synthesized acridone derivatives were screened in the concentration range of 0–200 µM, for 24 and 48 h. […] It was also interesting that in the studied […] concentration range these compounds don’t show considerable cytotoxicity towards HEK293 cell lines. […] Thus, compounds 5, 7b, 7d, 7f and 7h were taken for further cell based studies such as apoptosis and reactive oxygen species (ROS) production.
(§2) To study the effect of synthesized acridone derivatives on cell viability and proliferation, a standard MTT method was carried out. Cells were plated (8000–9000/well) in a 96-well plate and incubated overnight. On the next day, cells were treated with increasing concentrations (0.1–80 μM) of synthesized acridone derivatives in a final volume of 200 µl for 48 h at 37 °C in a humidified chamber. At the end of treatment time point, 20 µl of MTT solution (from 5 mg/ml stock solution in phosphate buffer saline, pH 7.4) was added to each well and incubated further for 4–5 h at 37 °C in the CO2 incubator. After stipulated time the supernatant was aspirated and the colored formazan crystal produced as a result of MTT reduction was dissolved in 100 µl of DMSO. The absorbance (A) of colored product was then measured at 570 nm on a multiplate ELISA reader (BioRad). The percentage of viable cells was calculated and used to estimate the IC50 (50% inhibitory concentration) values for each acridone derivative. For cell proliferation studies paclitaxel has been taken as positive control.

For data set [2], the system named is HepG2 cells. Kind of data set: MTT cell viability assay, HepG2. It counts as cell-based. To be noted: Homo sapiens, Table S2. As for the experimental part: as §1, §2
On the technique in general: Formazan colour is commonly taken as a measure of viable cells.

For data set [3], the system named is HEK293 cells. Kind of data set: MTT cell viability assay, HEK293. Format: cell-based. To be noted: Homo sapiens, Table S2. As for the experimental part:
as §1, §2

Data set [4] has as its target T1, recombinant MARK4 (Homo sapiens, UniProt Q96L34).
T1 construct: made in house; host or cells: bacterial cells (Luria-Bertani broth, IPTG induction)
T1 sequence (Q96L34 1-752): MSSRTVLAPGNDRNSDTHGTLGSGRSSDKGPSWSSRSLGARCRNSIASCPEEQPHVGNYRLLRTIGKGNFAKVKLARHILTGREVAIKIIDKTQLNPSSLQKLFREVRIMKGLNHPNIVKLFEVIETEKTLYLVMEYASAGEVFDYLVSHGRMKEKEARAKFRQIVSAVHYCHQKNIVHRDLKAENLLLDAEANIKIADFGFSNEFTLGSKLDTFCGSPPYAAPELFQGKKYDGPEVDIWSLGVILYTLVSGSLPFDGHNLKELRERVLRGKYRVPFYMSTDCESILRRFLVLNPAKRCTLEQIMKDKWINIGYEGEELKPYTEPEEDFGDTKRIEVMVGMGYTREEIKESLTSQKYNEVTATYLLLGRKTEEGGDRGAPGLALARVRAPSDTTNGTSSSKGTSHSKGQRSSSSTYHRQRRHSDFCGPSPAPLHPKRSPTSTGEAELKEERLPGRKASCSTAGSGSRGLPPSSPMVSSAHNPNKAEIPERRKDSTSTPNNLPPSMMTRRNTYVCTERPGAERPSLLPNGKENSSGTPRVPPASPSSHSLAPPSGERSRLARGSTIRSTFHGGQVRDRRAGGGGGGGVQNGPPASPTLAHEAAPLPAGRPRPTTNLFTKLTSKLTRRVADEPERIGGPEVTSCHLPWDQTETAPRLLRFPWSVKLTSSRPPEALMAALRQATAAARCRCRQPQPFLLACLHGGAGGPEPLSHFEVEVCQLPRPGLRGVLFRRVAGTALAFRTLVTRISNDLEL
The experiment in a line: ATPase enzyme inhibition assay (Malachite Green). It counts as biochemical. As for the experimental part:
To evaluate the inhibition activity of synthesized acridone derivatives against recombinant MARK4, ATPase enzyme inhibition assay was performed (Table S3). […] Our studies were initiated by replacing the ester group of 5 with sterically and electronically diverse amines affording the corresponding amides 7a–j, in order to establish favorable interactions with residues Ala135, Val70, Asp196 and/or Glu182. […] In this case, the docking studies indicate a better fit of 7h compared with 7g in the active site of MARK4 with a binding energy of −9.5 kcal/mol and a stronger predicted hydrogen bond with Ala135 (3.06 Å for 7h, 3.19 Å for 7g).
Enzyme activity of MARK4 was evaluated with the help of standard Malachite Green (Biomol Green reagent, Enzo Life Sciences) microtitre-plate assay as described earlier. Estimated amount of MARK4 (200 ng) and 20 µM ATP as a substrate were incubated for 10–15 min at 25 °C with increasing concentrations (0–20 µM) of synthesized acridone derivatives, in 20 mM Tris buffer, pH 8.0. Reaction was terminated by the adding 100 µl of Biomol Green reagent and absorbance of final reaction products was recorded at 620 nm in a multiplate ELSIA reader (BioRad). In order to quantify the hydrolyzed phosphate, inorganic phosphate standard curve were prepared from the phosphate standard solutions as supplied by the manufacturer (Biomol Green reagent, Enzo Life Sciences). All data points represent triplicate measurements from at least three independent experiments.

Data set [5] deals with T1, recombinant MARK4. The experiment in a line: Fluorescence binding (quenching, modified Stern-Volmer). To be noted: Table S3; fluorescence binding; read-out: Binding affinity (Ka) (converted). As for the experimental part: To determine the binding affinities of the synthesized acridones with MARK4, we used fluorescence emission spectra measurements. Protein sample was excited at 280 nm and emission was measured in 300–400 nm range with increasing concentrations of each acridone derivative (0–100 µM). A significant decrease in fluorescence intensity of MARK4 with increasing concentrations of each compound was fitted in the modified Stern-Volmer equation to calculate the binding constant, Ka and the number of binding sites per protein molecule (n). All the synthesized acridones have been screened (Supplementary Fig. S6, S7 and Table S3) and those with the highest affinity have been selected (compounds 5, 7b, 7d, 7f and 7h) for further evaluation (Fig. 3). The binding constants of compound 5, 7b, 7d, 7f and 7h were estimated as 6.3 × 10^4 M^−1, 1.0 × 10^6 M^−1, 1.0 × 10^6 M^−1, 1.9 × 10^6 M^−1, and 3.1 × 10^5 M^−1, respectively (Fig. 3).
Figure 3 Fluorescence binding studies of compound 5, 7b, 7d, 7f and 7h with MARK4. (A) Fluorescence emission spectra of MARK4 (10 µM) with increasing concentrations of the respective compound (5, 7b, 7d, 7f and 7h). Excitation wavelength was fixed at 280 nm and emission was recorded in 300–400 nm range. (B) Modified Stern-Volmer plot obtained from fluorescence quenching of MARK4 by compound 5, 7b, 7d, 7f and 7h, respectively. It was used to calculate binding affinity (Ka) and number of binding sites (n).
Binding affinities of synthesized acridone derivatives with recombinant MARK4 was carried out by observing the fluorescence intensity change of emission spectrum of MARK4 by following our previously published protocol[44],[45]. Each titration of protein was performed in triplicates and the average was taken for analysis. A significant decreased in fluorescence intensity of protein with increase in the concentration of acridone derivatives were used as the criteria for deducing the binding constant (Ka) as well as number of binding sites (n) present on the protein molecule using the modified Stern-Volmer equation[46]:1 log(Fo−F)/F=logKa+nlog[L] where, Fo = Fluorescence intensity of native protein, F = Fluorescence intensity of protein in the presence of ligand, Ka = Binding constant, n = number of binding sites, L = concentration of ligand. The values for Ka and n were derived from the intercept and slope, respectively.

Data set [6] relates to MARK2. Set-up: method as in PMID 21984823. To be noted: cited from earlier work.
The mark [7] stands for this setting: Table S3, read-out: IC50, (µM), for MARK4 Inhibition.
[8] abbreviates: ATPase inhibition, 20 µM ATP, read-out: IC50 against MARK4.

As a reminder, the IC50 is the concentration at which inhibition is half-maximal. Broadly, the melting point is the temperature, or range, at which the solid turns liquid.

Each structure is given as a SMILES string. Where two headings read alike, the source gives them in different places.

Turning to `Cc1ccc2c(c1)c(=O)c1ccccc1n2CC(=O)Nc1ccccc1` [Compound 7e, 2-(2-Methyl-9-oxoacridin-10(9H)-yl)-N-phenylacetamide], the melting point is 290 to 293 °C. In addition, in data set [1], the IC50 was determined as 13.8 µM. Moreover, the IC50 in data set [2] was 23.8 µM. Besides, in data set [3], the IC50 was > 200 µM. Moreover, the “MARK4 inhibition, comparison in words” value in data set [4] (ATPase inhibition) was “less potent than 7b”. The IC50 in data set [4] (setting [7]) is > 20 µM. The Kd in data set [5] was 1580 µM.
Regarding `Cc1ccc2c(c1)c(=O)c1ccccc1n2CC(=O)N(C)Cc1ccccc1` [Compound 7c, N-benzyl-N-methyl-2-(2-methyl-9-oxoacridin-10(9 H)-yl)acetamide], the melting point fell in the range of 131 to 141 °C. Besides, the IC50 in data set [1] was 11.9 µM. Further, the half-inhibitory concentration (IC50) in data set [2] is 19.4 µM. Further, in data set [3], the IC50 is > 200 µM. In addition, the “MARK4 inhibition, comparison in words” value in data set [4] (ATPase inhibition) was “much weaker inhibitor”. Further, the IC50 in data set [4] (setting [7]) is > 20 µM. Moreover, in data set [5], the Kd is 501 µM.
For `COC(=O)c1ccc(NC(=O)Cn2c3ccccc3c(=O)c3cc(C)ccc32)cc1` [Compound 7i, Methyl 4-(2-(2-methyl-9-oxoacridin-10(9H)-yl)acetamido)benzoate], the IC50 in data set [1] is 14.1 µM; in data set [2], 25.1 µM; in data set [3], > 200 µM; in data set [4] (setting [8]) it was > 20 µM. Besides, the Kd in data set [5] was 1580 µM.
`Cc1ccc2c(c1)c(=O)c1ccccc1n2CC(=O)N1CCOCC1` [Compound 7a, 2-Methyl-10-(2-morpholino-2-oxoethyl)acridin-9(10H)-one]: the concentration for half-maximal inhibition (IC50) in data set [1] is 12.3 µM; in data set [2], 24.3 µM; in data set [3], > 200 µM; in data set [4] (setting [7]), > 20 µM. Moreover, the Kd in data set [5] was 501 µM.
Turning to `COc1ccc2c(c1)c(=O)c1ccccc1n2CC(=O)Nc1cccc(C(F)(F)F)c1` [Compound 30019], the IC50 in data set [6] was < 10 µM.
`COc1ccc(NC(=O)Cn2c3ccccc3c(=O)c3cc(C)ccc32)cc1` [Compound 7g, N-(4-methoxyphenyl)-2-(2-methyl-9-oxoacridin-10(9H)-yl)acetamide] had a melting point of 282 to 286 °C. For the same molecule, the IC50 in data set [1] was determined as 14.3 µM. For the same molecule, the midpoint of inhibition in data set [2], the IC50, lay at 21.2 µM. The half-maximal inhibitory concentration (IC50) in data set [3] is > 200 µM. Further, the IC50 in data set [4] (setting [8]) was > 20 µM. Besides, in data set [4] (setting [7]), the IC50 was > 20 µM. In data set [5], the Kd was 158 µM.
In turn, `CC(=O)c1ccc(NC(=O)Cn2c3ccccc3c(=O)c3cc(C)ccc32)cc1` [Compound 7j, N-(4-acetylphenyl)-2-(2-methyl-9-oxoacridin-10(9H)-yl)acetamide] showed a melting point of 306 to 309 °C. Moreover, the IC50 in data set [1] amounted to 16.3 µM. In data set [2], this molecule came in with an IC50 of 24.4 µM. Besides, the IC50 in data set [3] was > 200 µM. Besides, the half-maximal inhibitory concentration (IC50) in data set [4] (setting [8]) was > 20 µM. The Kd in data set [5] is 501 µM.
Take `O=C(Cn1c2ccccc2c(=O)c2ccccc21)Oc1ccccc1F` [Compound 30195]: the IC50 in data set [6] was < 10 µM.
Turning to `N#Cc1ccc(NC(=O)Cn2c3ccccc3c(=O)c3ccccc32)cc1` [Compound 30197], in data set [6], the IC50 is < 10 µM.
On to `CCOC(=O)c1cnc(NC(=O)Cn2c3ccccc3c(=O)c3ccccc32)s1` [Compound 30199], for which, in data set [6], the concentration for half-maximal inhibition (IC50) is < 10 µM.
